The nature of series [1]: Anti-maximal electroshock seizure activity in mice. The class given is in vivo, mice (male, STD-ddY strain). To be noted: Mus musculus, oral, MES 60 Hz 25 mA 0.2 s, at peak effect time. The text has this: Male mice of STD-ddY strain were used. The test compounds were orally administered to the test animals (each group: 10 mice) in the form of a homogeneous suspension in a 0.5% tragacanth solution.
Maximal electroshock seizures (MES) were induced by the method of Swinyard [cf. J. Amer. Pharm. Assoc., Vol. 38, page 201 (1949)]. The animals were subjected to 60 Hz current of 25 mA for 0.2 second delivered through corneal electrodes after administration of the test compounds. […] J. Pharmacol. Exp. Ther., Vol. 96, page 99 (1947)].

Series [2] can be described thus: in vivo. As to conditions: mouse; for LD50 at 168 h: mortality observed for 7 days; for selectivity ratio: read-out: Safety index. The text has this:
Male mice of STD-ddY strain weighing 20-22 g were used. The test compounds were orally administered to the test animals (each group: 10 mice) in the form of a homogeneous suspension in 0.5% tragacanth solution.

The nature of series [3]: Effect on coordinated motor movements in mice (rotarod). To be noted: for TD50 / selectivity ratio: mouse, in vivo, po; for NTD50 (median neurotoxic dose): oral, mice, rotarod, at peak effect time. As for the experimental part:
Mice trained to continue coordinated motor movements for 100 seconds or more on a rotarod apparatus (2.5 cm in diameter at 11 RPM) were used [J. Amer. Pharm. […] Impairment of coordinated motor movements was defined as the inability of the animals to retain on the rotarod for a 100 second test period. After oral administration of the test compounds rotarod performance was tested at intervals of 1 hour for 6 hours. Median neurotoxic dose (NTD50), i.e. the does which causes fall from rotarod in 50% of animals, was calculated by the method of Litchfield and Wilcoxon.

As for `NC(=O)N1c2ccccc2C=Cc2ccccc21` [Carbamazepine, 5H-dibenz[b,f]azepine-5-carboxamide, reference compound], it took a dose of 13.2 mg/kg to reach the 50% effect level in series [1] (ED50). The median lethal dose (LD50) at 168 h in series [2] (oral, mice) amounted to 1700 mg/kg. In addition, in series [2] (po), the selectivity ratio was 129. Moreover, in series [3], the TD50 is 141 mg/kg and the selectivity ratio is 10.7.

In turn, `NS(=O)(=O)Cc1noc2ccccc12` [compound 1] showed an ED50 in series [1] of 19.6 mg/kg. In series [2] (oral, mice), this compound displayed an LD50 at 168 h of 1830 mg/kg. Further, the values for the selectivity ratio in series [2] (po) and in series [3] were 93.3 and 14.9, respectively. For the same compound, the “NTD50 (median neurotoxic dose)” value in series [3] is on record as 292 mg/kg, p.o.

For `CNS(=O)(=O)Cc1noc2ccc(Br)cc12` [compound 15], in series [1], it took a dose of 15 mg/kg to reach the 50% effect level (ED50).

In series [1], `CCNS(=O)(=O)Cc1noc2ccc(Br)cc12` [compound 16] came in with an ED50 of 18.3 mg/kg.

Turning to `CNS(=O)(=O)Cc1noc2ccc(Cl)cc12` [Test compound 7], the ED50 in series [1] was approximately 20 mg/kg.

In the case of `CNS(=O)(=O)Cc1noc2ccccc12` [compound 2], in series [1], the ED50 was determined as 22.3 mg/kg.

`CCNS(=O)(=O)Cc1noc2ccc(F)cc12` [compound 12] came in with an ED50 in series [1] of 31.6 mg/kg.

Compound `CC(C)NS(=O)(=O)Cc1noc2ccc(Br)cc12` [compound 17] gave an ED50 in series [1] of 22.3 mg/kg.

Consider `CN(C)S(=O)(=O)Cc1noc2ccc(Cl)cc12` [compound 9], for which, in series [1], the ED50 was found to be 56.2 mg/kg.

`CC(C)NS(=O)(=O)Cc1noc2ccccc12` [Test compound 4] registered an ED50 in series [1] of 56 mg/kg.

In the case of `CN(C)S(=O)(=O)Cc1nc2ccccc2o1` [compound 21], the ED50 in series [1] came to 34 mg/kg.

For `CN(C)S(=O)(=O)Cc1noc2ccccc12` [compound 5], in series [1], the ED50 amounted to 37.2 mg/kg.

With `NS(=O)(=O)Cc1noc2ccc(Cl)cc12` [compound 6], in series [1], it took a dose of 14.2 mg/kg to reach the 50% effect level (ED50).

The compound `CCCNS(=O)(=O)Cc1nc2ccccc2o1` [compound 22] registered an ED50 in series [1] of 31.2 mg/kg.

In series [1], `CCNS(=O)(=O)Cc1noc2ccccc12` [Test compound 3] registered an ED50 of 38.9 mg/kg.

The compound `O=C1NC(=O)C(c2ccccc2)(c2ccccc2)N1` [Diphenylhydantoin, 5,5-diphenyl-2,4-imidazolidinedione, reference compound] yielded an ED50 in series [1] of 7.6 mg/kg. This compound also displayed a TD50 in series [3] of 72 mg/kg.

In turn, `NC(=O)NC(=O)Cc1ccccc1` [Phenacemide, phenylacetylurea, reference compound] gave an ED50 in series [1] of 61.2 mg/kg.

In series [1], `NS(=O)(=O)Cc1nc2ccccc2o1` [compound 19] had an ED50 of 12 mg/kg. The compound further returned an LD50 at 168 h in series [2] (oral, mice) of approximately 1800 mg/kg. In series [3], the TD50 is 168 mg/kg and the selectivity ratio was 14.

Regarding `CNS(=O)(=O)Cc1nc2ccccc2o1` [compound 20], it took a dose of 17.2 mg/kg to reach the 50% effect level in series [1] (ED50).

Consider `CCC1(c2ccccc2)C(=O)NCNC1=O` [Primidone, 5-ethyl-5-phenylhexahydropyrimidine-4,6-dione, reference compound], for which the 50% effect level in series [1] (ED50) was put at a dose of 21.7 mg/kg.

The compound `NS(=O)(=O)Cc1noc2ccc(Br)cc12` [compound 14] had an ED50 in series [1] of 13.5 mg/kg.

With `NS(=O)(=O)Cc1noc2cc(F)ccc12` [compound 18], the median effective dose (ED50) in series [1] came out at 18.9 mg/kg.

As for `CN(C)S(=O)(=O)Cc1noc2ccc(F)cc12` [compound 13], the ED50 in series [1] amounted to 32 mg/kg.

In series [1], `CCNS(=O)(=O)Cc1noc2ccc(Cl)cc12` [compound 8] showed an ED50 of 21.3 mg/kg.

The compound `CNS(=O)(=O)Cc1noc2ccc(F)cc12` [compound 11] came in with an ED50 in series [1] of 34.5 mg/kg.

For the compound `NS(=O)(=O)Cc1noc2ccc(F)cc12` [Test compound 10, 5-Fluoro-3-sulfamoylmethyl-1,2-benzisoxazole], the selectivity ratio was 86.7 in series [2] (LD50/ED50 of anti-MES, mice, oral) and 10.6 in series [3]. This compound yielded a 50% lethal dose (LD50) at 168 h in series [2] (oral, mice) of 1260 mg/kg. For the same compound, in series [3], the “NTD50 (median neurotoxic dose)” value is 154 mg/kg, p.o.

The compound `NS(=O)(=O)Cc1nc2cc(Cl)ccc2o1` [compound 23] came in with an ED50 in series [1] of 30.3 mg/kg.

(Values after patent US4172896A, “Methane-sulfonamide derivatives, the preparation thereof and composition comprising the same” (Dainippon Pharmaceutical Co., Ltd., priority 1978, dated 1979).)
